In patent publication US8344008B2 (Janssen Pharmaceutica NV, priority 2007, dated 2013):
pKi: −log10 of the molar value. Where a name gives a salt, the structure may show the parent alone.

Target: T1, recombinant human LTA4 hydrolase (rhLTA4H) (Homo sapiens, UniProt P09960)
T1 construct: made in house; host or cells: Spodoptera frugiperda (Sf-9) cells, baculovirus (pFastBac1)
T1 sequence (P09960 1-611): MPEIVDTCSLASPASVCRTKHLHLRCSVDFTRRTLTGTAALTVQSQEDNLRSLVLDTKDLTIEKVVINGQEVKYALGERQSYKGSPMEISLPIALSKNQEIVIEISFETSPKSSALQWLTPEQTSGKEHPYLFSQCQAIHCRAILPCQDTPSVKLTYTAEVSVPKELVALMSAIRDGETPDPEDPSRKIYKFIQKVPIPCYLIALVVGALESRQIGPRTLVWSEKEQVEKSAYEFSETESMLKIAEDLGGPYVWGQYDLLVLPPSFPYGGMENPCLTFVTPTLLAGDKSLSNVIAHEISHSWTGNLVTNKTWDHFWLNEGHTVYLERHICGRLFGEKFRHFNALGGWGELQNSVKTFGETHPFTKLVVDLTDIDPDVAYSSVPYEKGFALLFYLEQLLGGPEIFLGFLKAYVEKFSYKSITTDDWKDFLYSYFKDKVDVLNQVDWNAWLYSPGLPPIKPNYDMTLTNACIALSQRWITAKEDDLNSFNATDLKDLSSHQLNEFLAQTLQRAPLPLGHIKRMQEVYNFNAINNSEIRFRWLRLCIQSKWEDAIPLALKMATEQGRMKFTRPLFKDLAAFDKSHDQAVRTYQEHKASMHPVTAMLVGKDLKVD
Test: Recombinant Human LTA4 Hydrolase Assay for LTA4 Hydrolase Inhibitor Activity
Type: biochemical
Details: average of results obtained; LTB4 quantified by enzyme-linked immunoassay
How it was run: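 LTB4 formation, quantified by EIA after 10 min at rt, was the read-out once 9 ng LTA4 (free acid) was added to recombinant human enzyme (36 ng, Sf-9 expressed) that had sat 10 min with compound. Buffer: 0.1 M potassium phosphate pH 7.4 with fatty-acid-free BSA; IC50 by 4-parameter fit.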

Row | SMILES | pKi
1 | O=S(=O)(C1CC1)N1CC2CN(Cc3ccc(Oc4nc5ccccc5s4)cc3)CC2C1 (centres unmarked) [Example 126, 2-[4-(5-Cyclopropanesulfonyl-hexahydro-pyrrolo[3,4-c]pyrrol-2-ylmethyl)-phenoxy]-benzothiazole] | 7.77
2 | CC(C)(O)C(=O)N1C2CCC1CN(Cc1ccc(Oc3nc4ccccc4s3)cc1)C2 [Example 53, meso-1-{3-[4-(Benzothiazol-2-yloxy)-benzyl]-3,8-diaza-bicyclo[3.2.1]oct-8-yl}-2-hydroxy-2-methyl-propan-1-one] | 6.93
3 | O=C(N1CCOCC1)N1CC2CN(Cc3ccc(Oc4nc5ccccc5s4)cc3)CC2C1 (centres unmarked) [Example 115, {5-[4-(Benzothiazol-2-yloxy)-benzyl]-hexahydro-pyrrolo[3,4-c]pyrrol-2-yl}-morpholin-4-yl-methanone] | 8.00
4 | NC(=O)N1C[C@@H]2C[C@H]1CN2Cc1ccc(Oc2nc3ccccc3s2)cc1 [Example 32, (S,S)-5-[4-(Benzothiazol-2-yloxy)-benzyl]-2,5-diaza-bicyclo[2.2.1]heptane-2-carboxylic acid amide] | 8.52
5 | CC(=O)N1C[C@H]2C[C@@H]1CN2CCOc1ccc(Oc2nc3cccc(F)c3s2)cc1 [Example 218, (R,R)-1-(5-{2-[4-(7-Fluoro-benzothiazol-2-yloxy)-phenoxy]-ethyl}-2,5-diaza-bicyclo[2.2.1]hept-2-yl)-ethanone] | 7.70
6 | CC(=O)N[C@H]1C[C@H]2CC[C@@H](C1)N2CCc1ccc(Oc2nc3cccc(Cl)c3s2)cc1 [Example 187, meso-endo-N-(8-{2-[4-(7-Chloro-benzothiazol-2-yloxy)-phenyl]-ethyl}-8-aza-bicyclo[3.2.1]oct-3-yl)-acetamide] | 6.01
7 | CC(=O)N1[C@@H]2CC[C@H]1C[C@H](NCCOc1ccc(Oc3nc4ccc(Cl)cc4s3)cc1)C2 [Example 178, meso-exo-1-(3-{2-[4-(6-Chloro-benzothiazol-2-yloxy)-phenoxy]-ethylamino}-8-aza-bicyclo[3.2.1]oct-8-yl)-ethanone] | 6.05
8 | CS(=O)(=O)N[C@@H]1C[C@H]2CC[C@@H](C1)N2Cc1ccc(Oc2nc3cccc(Cl)c3s2)cc1 [Example 215, meso-exo-N-{8-[4-(7-Chloro-benzothiazol-2-yloxy)-benzyl]-8-aza-bicyclo[3.2.1]oct-3-yl}-methanesulfonamide] | 7.05
9 | CC(=O)N1CC2CN(Cc3ccc(Cc4nc5ccccc5s4)cc3)CC2C1 (centres unmarked) [Example 149, 1-[5-(4-Benzothiazol-2-ylmethyl-benzyl)-hexahydro-pyrrolo[3,4-c]pyrrol-2-yl]-ethanone] | 7.10
10 | O=C(c1cccs1)N1CC2CN(Cc3ccc(Oc4nc5ccccc5s4)cc3)CC2C1 (centres unmarked) [Example 107, {5-[4-(Benzothiazol-2-yloxy)-benzyl]-hexahydro-pyrrolo[3,4-c]pyrrol-2-yl}-thiophen-2-yl-methanone] | 7.70
11 | CS(=O)(=O)N1CC2CCC(C1)N2CCc1ccc(Oc2nc3cc(F)ccc3s2)cc1 [Example 210, meso-5-Fluoro-2-{4-[2-(3-methanesulfonyl-3,8-diaza-bicyclo[3.2.1]oct-8-yl)-ethyl]-phenoxy}-benzothiazole] | 6.79
12 | CS(=O)(=O)N1[C@@H]2CC[C@H]1C[C@H](NCc1ccc(Oc3nc4cc(Cl)ccc4s3)cc1)C2 [Example 185, meso-exo-[4-(5-Chloro-benzothiazol-2-yloxy)-benzyl]-(8-methanesulfonyl-8-aza-bicyclo[3.2.1]oct-3-yl)-amine] | 6.02
13 | c1ccc2sc(Oc3ccc(CN4CC5CCNC5C4)cc3)nc2c1 (centres unmarked) [Example 81, 2-[4-(Hexahydro-pyrrolo[3,4-b]pyrrol-5-ylmethyl)-phenoxy]-benzothiazole hydrochloride] | 6.79
14 | CC(C)(C)OC(=O)NCC(=O)N1C[C@H]2C[C@@H]1CN2Cc1ccc(Oc2nc3ccccc3s2)cc1 [Example 28, (R,R)-(2-{5-[4-(Benzothiazol-2-yloxy)-benzyl]-2,5-diaza-bicyclo[2.2.1]hept-2-yl}-2-oxo-ethyl)-carbamic acid tert-butyl ester] | 7.06
15 | c1ccc2sc(Oc3ccc(CN4CC5CNCC5C4)cc3)nc2c1 (centres unmarked) [Example 83, 2-[4-(Hexahydro-pyrrolo[3,4-c]pyrrol-2-ylmethyl)-phenoxy]-benzothiazole hydrochloride] | 7.26
16 | CS(=O)(=O)N1C[C@@H]2C[C@H]1CN2Cc1ccc(Oc2nc3ccc(F)cc3s2)cc1 [Example 230, (S,S)-6-Fluoro-2-[4-(5-methanesulfonyl-2,5-diaza-bicyclo[2.2.1]hept-2-ylmethyl)-phenoxy]-benzothiazole] | 6.40
17 | NC(=O)N1CC2CN(Cc3ccc(Oc4nc5ccc(F)cc5s4)cc3)CC2C1 (centres unmarked) [Example 144, 5-[4-(6-Fluoro-benzothiazol-2-yloxy)-benzyl]-hexahydro-pyrrolo[3,4-c]pyrrole-2-carboxylic acid amide] | 7.00
18 | CC(=O)N1C[C@@H]2C[C@H]1CN2Cc1ccc(Oc2nc3ccc(C)cc3s2)cc1 [Example 270, (S,S)-1-{5-[4-(6-Methyl-benzothiazol-2-yloxy)-benzyl]-2,5-diaza-bicyclo[2.2.1]hept-2-yl}-ethanone] | 7.14
19 | NCC(=O)N1C[C@H]2C[C@@H]1CN2Cc1ccc(Oc2nc3ccccc3s2)cc1 [Example 29, (R,R)-2-Amino-1-{5-[4-(benzothiazol-2-yloxy)-benzyl]-2,5-diaza-bicyclo[2.2.1]hept-2-yl}-ethanone] | 7.11
20 | CC(=O)N1[C@@H]2CC[C@H]1C[C@H](NCc1ccc(Oc3nc4cc(F)ccc4s3)cc1)C2 [Example 165, meso-exo-1-{3-[4-(5-Fluoro-benzothiazol-2-yloxy)-benzylamino]-8-aza-bicyclo[3.2.1]oct-8-yl}-ethanone] | 6.38
21 | O=S(=O)(c1cccs1)N1CC2CN(Cc3ccc(Oc4nc5ccccc5s4)cc3)CC2C1 (centres unmarked) [Example 124, 2-{4-[5-(Thiophene-2-sulfonyl)-hexahydro-pyrrolo[3,4-c]pyrrol-2-ylmethyl]-phenoxy}-benzothiazole] | 5.64

The remaining compounds from weak to strong by pKi, led by results:

Row | pKi | SMILES
22 | 5.83 | CS(=O)(=O)N1C[C@H]2C[C@@H]1CN2Cc1ccc(Oc2nc3cc(Cl)ccc3s2)cc1 [Example 181, (R,R)-5-Chloro-2-[4-(5-methanesulfonyl-2,5-diaza-bicyclo[2.2.1]hept-2-ylmethyl)-phenoxy]-benzothiazole]
23 | 6.27 | Cc1ccc2nc(Oc3ccc(CCN4C5CCC4CN(S(C)(=O)=O)C5)cc3)sc2c1 [Example 214, meso-2-{4-[2-(3-Methanesulfonyl-3,8-diaza-bicyclo[3.2.1]oct-8-yl)-ethyl]-phenoxy}-6-methyl-benzothiazole]
24 | 6.35 | Cc1ccc2nc(Oc3ccc(OCCN[C@H]4C[C@H]5CC[C@@H](C4)N5S(C)(=O)=O)cc3)sc2c1 [Example 220, meso-endo-(8-Methanesulfonyl-8-aza-bicyclo[3.2.1]oct-3-yl)-{2-[4-(6-methyl-benzothiazol-2-yloxy)-phenoxy]-ethyl}-amine]
25 | 6.70 | CC(C)(C)OC(=O)N1CC(C(=O)N2C[C@@H]3C[C@H]2CN3CCOc2ccc(Oc3nc4ccccc4s3)cc2)C1 [Example 67, (S,S)-3-(5-{2-[4-(Benzothiazol-2-yloxy)-phenoxy]-ethyl}-2,5-diaza-bicyclo[2.2.1]heptane-2-carbonyl)-azetidine-1-carboxylic acid tert-butyl ester]
26 | 6.72 | CS(=O)(=O)N1C[C@@H]2C[C@H]1CN2Cc1ccc(Cc2nc3ccccc3s2)cc1 [Example 45, (S,S)-2-[4-(5-Methanesulfonyl-2,5-diaza-bicyclo[2.2.1]hept-2-ylmethyl)-benzyl]-benzothiazole]
27 | 6.92 | CS(=O)(=O)N1CC2CCN(Cc3ccc(Oc4nc5ccccc5s4)cc3)C2C1 (centres unmarked) [Example 128, 2-[4-(5-Methanesulfonyl-hexahydro-pyrrolo[3,4-b]pyrrol-1-ylmethyl)-phenoxy]-benzothiazole]
28 | 7.02 | NC(=O)N1CC2CCN(Cc3ccc(Oc4nc5ccccc5s4)cc3)CC2C1 (single isomer, unassigned; (-)) [Example 142B, (−)-5-[4-(Benzothiazol-2-yloxy)-benzyl]-octahydro-pyrrolo[3,4-c]pyridine-2-carboxylic acid amide]
29 | 7.26 | CC(=O)N1CC2CCN(Cc3ccc(Oc4nc5ccccc5s4)cc3)C2C1 (centres unmarked) [Example 86, 1-{1-[4-(Benzothiazol-2-yloxy)-benzyl]-hexahydro-pyrrolo[3,4-b]pyrrol-5-yl}-ethanone]
30 | 8.00 | c1ccc2sc(Oc3ccc(CCN4C[C@@H]5C[C@H]4CN5)cc3)nc2c1 [Example 7B, (S,S)-2-{4-[2-(2,5-Diaza-bicyclo[2.2.1]hept-2-yl)-ethyl]-phenoxy}-benzothiazole hydrochloride]
31 | 8.00 | O=C(C1CC1)N1CC2CN(Cc3ccc(Oc4nc5ccccc5s4)cc3)CC2C1 (centres unmarked) [Example 111, {5-[4-(Benzothiazol-2-yloxy)-benzyl]-hexahydro-pyrrolo[3,4-c]pyrrol-2-yl}-cyclopropyl-methanone]
32 | 8.70 | CC(=O)N[C@H]1C[C@H]2CC[C@@H](C1)N2Cc1ccc(Oc2nc3c(F)cccc3s2)cc1 [Example 68, meso-endo-N-{8-[4-(4-Fluoro-benzothiazol-2-yloxy)-benzyl]-8-aza-bicyclo[3.2.1]oct-3-yl}-acetamide]
